# In US12624068B2, “Exon skipping by peptide nucleic acid derivatives” (OliPass Corporation, priority 2016, dated 2026):
# {Fethoc} = N-terminal Fethoc capping group (publication's abbreviation); [C(1O2)] = modified PNA monomer acting as cytosine, C(pOq) type, 1O2; [A(5)] = modified PNA monomer acting as adenine, A(p) type, p=5; [G(6)] = modified PNA monomer acting as guanine, G(p) type, p=6; {NH2} = C-terminal non-substituted amino (amide) group
# Experiments:
# human IDO1 pre-mRNA = assay: IDO1 nested PCR for exon skipping in SKOV3 cells; format: cell-based; settings: 48 hours
# Experimental: “IDO-ASO 1” was evaluated for its ability to induce exon skipping in SKOV3 cells (Cat. Number HTB-77, ATCC) by IDO1 nested PCR as follows. [Cell Culture & ASO Treatment] SKOV3 (human ovary adenocarcinoma) cells were subcultured in 60 mm culture dish containing 5 mL McCoy's 5A modified medium supplemented with 10% FBS, 1% streptomycin/penicillin, 1% L-glutamine, and 1% sodium pyruvate under 5% CO2 at 37° C., and treated with “IDO-ASO 1” for 48 hours at 0 zM (negative control), 10 zM, 100 zM or 1 aM. [RNA Extraction & cDNA Synthesis by One-Step RT-PCR] Total RNA was extracted from the cells using “Universal RNA Extraction Kit” (Cat. Number 9767, Takara) according to the manufacturer's instructions. […] NO: 114); and IDO-exon 10_reverse: (5'→3') […] [Nested PCR Amplification] 1 μL of cDNA was further amplified in a 20 μL nested PCR reaction (Cat. No. K2612, Bioneer) against a set of exon-specific primers [IDO-exon 4_forward: (5'→3') […] NO: 116); and IDO-exon 9_reverse: (5'→3') […] [Identification of Exon Skipping Product] The PCR products were subjected to electrophoretic separation on a 2% agarose gel. The bands of target size were collected and analyzed by Sanger sequencing. […] [ASO Treatment] SKOV3 cells grown in 60 mm culture dish were treated with “IDO-ASO 5” at 0 (negative control), 1, 3, 10, 30 or 100 aM for 48 hours. [cDNA Synthesis by One-step PCR] […] NO: 119); and IDO-exon 8_reverse: (5'→3') […] [Nested PCR Amplification] 1 μL of cDNA was further amplified in a 20 μL nested PCR (Cat. No. K2612, Bioneer) reaction using a set of exon-specific primers [IDO-exon 1n_forward: (5'→3') […] NO: 121); and IDO-exon 8n_reverse: (5'→3') […] “IDO-ASO 6” was evaluated for its ability to induce exon skipping in SKOV3 cells by IDO1 nested PCR as described in “IDO1 Example 3” unless noted otherwise.
# [1] = system: secretion of kynurenine in SKOV3 cells; assay: Kynurenine secretion assay in SKOV3 cells; format: cell-based, human; settings: 24 hours, with 10 ng/mL γ-interferon
# Experimental: The functional activity of “IDO-ASO 1” was evaluated for its ability to inhibit the secretion of kynurenine in SKOV3 cells as follows.
# [Kynurenine Secretion Assay] […] (3 dishes per concentration) Cells were treated with the ASO along with 10 ng/mL γ-interferon to increase the kynurenine secretion. 24 hours later, 200 μL of the culture medium was sampled from each culture dish and mixed with 100 μL 30% trichloroacetic acid. The mixture was vortexed and subjected to centrifugation at 8,000 g for 5 min. 75 μL of the resulting supernatant was mixed with 75 μL Ehrlich reagent (0.8% p-dimethylamino-benzaldehyde in acetic acid), and the mixture was subjected to a quantification for kynurenine at 490 nm on an ELISA reader. [PLOS One 5(8): e63301 (2013)]
# human PD-1 mRNA = assay: PD-1 nested qPCR in Jurkat cells; format: cell-based; settings: 24 hours; for decrease of PD-1 mRNA level (nested qPCR): activated Jurkat cells
# Experimental: [Cell Culture & ASO Treatment] Jurkat cells grown in 60 mm culture dish were activated with an anti-CD3 antibody (Cat. Number 16-0037, eBioscience) at […] and an anti-CD28 antibody (Cat. No. 16-0289, eBioscience) at 0.5 μg/mL for 48 hours. Then the culture medium was replaced with fresh medium, and treated with “PD-ASO 3” at 0 (negative control), 10, 100 or 1,000 aM for 24 hours. (4 culture dishes per ASO concentration) [RNA Extraction and cDNA Synthesis by One Step RT-PCR] Total RNA was extracted using RNAeasy mini prep kit (Qiagen, USA) according to the manufacturer's protocol. […] NO: 157); and PD-exon 5_reverse: (5'→3') […] NO: 158)]. Cycle conditions: 50° C. for 30 minutes and 94° C. for 2 minutes, which was followed by 30 cycles of 30 seconds at 94° C., 30 seconds at 53° C., and 1 minutes at 72° C. [Nested qPCR by SYBR] […] NO: 159); and PD-exon 2_reverse: (5'→3') […] NO: 160)] according to the following cycle conditions: 20 seconds at 95° C., 30 seconds at 56° C., and 40 seconds at 72° C. for 40 cycles. The qPCR reaction was probed with SYBR (Bio-Rad, USA).
# human PD-1 pre-mRNA = assay: PD-1 nested PCR for exon skipping in Jurkat cells; format: cell-based; settings: 5 hours
# Experimental: “PD-ASO 3” was evaluated for its ability to induce the skipping of the human PD-1 exon 2 in Jurkat cells as follows. [Cell Culture & ASO Treatment] Jurkat cells (Cat. Number TIB-152, ATCC) were maintained in RPMI-1640 supplemented with 10% FBS and 1% streptomycin/penicillin. Jurkat cells grown in 60 mm culture dish containing 5 mL culture medium were treated for 5 hours with “PD-ASO 5” at 0 (negative control), 10, 100 or 1,000 aM. [RNA Extraction and cDNA Synthesis by One Step RT-PCR] Total RNA was extracted using RNAeasy mini prep kit (Qiagen, USA) according to the manufacturer's protocol. […] NO: 153); and PD-exon 5_reverse: (5'→3') […] NO: 154)]. Cycle conditions: 50° C. for 30 minutes and 94° C. for 2 minutes, which was followed by 30 cycles of 30 seconds at 94° C., 30 seconds at 53° C., and 1 minutes at 72° C. [Nested PCR Amplification] 1 μL of cDNA diluted by 100× was further amplified in a 20 μL nested PCR (Invitrogen, USA) using the following cycle conditions: 20 seconds at 95° C., 30 seconds at 56° C., and 40 seconds at 72° C. for 40 cycles against a set of exon-specific primers [PD-exon 1n_forward: (5'→3') […] NO: 155); and PD-exon 5n_reverse: (5'→3') […] NO: 156)]. [Identification of Exon Skipping Products] The resulting nested PCR products were subjected to electrophoretic separation on a 2% agarose gel. The bands of target size were collected and analyzed by Sanger sequencing.
# human IL-2 mRNA = assay: IL-2 qPCR in Jurkat cells; format: cell-based; settings: 24 hours
# Experimental: Down-regulation of the PD-1 activity has been known to upregulate the expression of interleukin 2 (IL-2). [Am. J. Clin. Oncol. Vol 39(1), 98-106 (2016)] […] [Cell Culture & ASO Treatment] Jurkat cells grown in 60 mm culture dish were activated with an anti-CD3 antibody (Cat. Number 16-0037, eBioscience) at 1 μg/mL and an anti-CD28 antibody (Cat. No. 16-0289, eBioscience) at 0.5 μg/mL for 48 hours. Then the culture medium was replaced with fresh medium, and treated with “PD-ASO 3” at 0 (negative control), 10, 100 or 1,000 aM for 24 hours. (4 culture dishes per ASO concentration) [RNA Extraction and cDNA Synthesis] Total RNA was extracted using RNeasy mini prep kit (Qiagen, USA) according to the manufacturer's protocol. […] [qPCR by SYBR] 1 μL of each cDNA solution was subjected to a 20 μL qPCR amplifications against a set of primers targeting the IL-2 mRNA [IL-2_forward: (5'→3') […] NO: 161); and IL-2_reverse: (5'→3') […] NO: 162)] according to the following cycle conditions: 20 seconds at 95° C., 30 seconds at 56° C., and 40 seconds at 72° C. for 40 cycles. The qPCR reaction was probed with SYBR (Bio-Rad, USA).
# [2] = system: melanogenesis in B16F10 cells; assay: Melanin content (melanogenesis) in B16F10 cells; format: cell-based, mouse; settings: 24 hours
# Experimental: “TYR-ASO 4” was evaluated for its ability to inhibit the melanogenesis in B16F10 cells as described below.
# B16F10 cells grown in 60 mm culture dish containing 5 mL culture medium were treated either with “TYR-ASO 4” at 0 (negative control) or 1 to 1,000 aM, or with 10 or 100 μg/mL arbutin as a positive control. (2 culture dishes per dose) 24 hours later, the cells were subjected to lysis with 200 μL 1N NaOH. Each lysate was collected in 1.5 mL e-tube, and kept overnight at room temperature. The melanin content in each lysate was determined by absorbance at 475 nm on an ELISA reader. The experiment was repeated four times using cells at different passage. The four sets of the melanin content data were pooled for statistical analysis by student's t-test against the melanin content without treatment (negative control).
# [3] = activated Jurkat cells, 1,000 aM
compound,measurement,setting,value
"Fethoc-GG(6)A-A(5)TT-A(5)CC(1O2)-TAA(5)-A-NH2 (GGAATTACCTAAA; splice-switching; all peptide nucleic acid (PNA), [G(6)] at 2, [A(5)] at 4, 7, 12, [C(1O2)] at 9, 5' {Fethoc}, 3' {NH2}; peptide nucleic acid backbone) [IDO-ASO 1]",intensity of the full-length IDO-1 mRNA by nested PCR,human IDO1 pre-mRNA; 1 aM,increased
same,intensity of the full-length IDO-1 mRNA by nested PCR,human IDO1 pre-mRNA; 10 or 100 zM,decreased
same,IDO1 exon skipping band by nested PCR,human IDO1 pre-mRNA; 10 zM or 1 aM,not detected
same,skipping of IDO1 exons 6-7 by nested PCR,human IDO1 pre-mRNA; 100 zM,detected
same,decrease of kynurenine secretion,[1]; 1 fM,~40%
same,secretion of kynurenine,[1]; 10 zM to 1 fM except 1 aM,significantly (student's t-test) decreased
"Fethoc-C(1O2)TG(6)-GG(6)G-AG(6)T-CTG-A(5)G-NH2 (CTGGGGAGTCTGAG; splice-switching; all peptide nucleic acid (PNA), [C(1O2)] at 1, [G(6)] at 3, 5, 8, [A(5)] at 13, 5' {Fethoc}, 3' {NH2}; peptide nucleic acid backbone) [PD-ASO 1]",decrease of PD-1 mRNA level (nested qPCR),"human PD-1 mRNA; 100 and 1,000 aM",~60%
"Fethoc-CG(6)C-A(5)CC-TG(6)T-CA(5)C-C(1O2)C-NH2 (CGCACCTGTCACCC; splice-switching; all peptide nucleic acid (PNA), [G(6)] at 2, 8, [A(5)] at 4, 11, [C(1O2)] at 13, 5' {Fethoc}, 3' {NH2}; peptide nucleic acid backbone) [PD-ASO 3]",PD-1 exon skipping by nested PCR,"human PD-1 pre-mRNA; Jurkat cells, 10 and 100 aM",yielded a PCR product band corresponding to the skipping of exon 2
same,PD-1 exon skipping by nested PCR,"human PD-1 pre-mRNA; Jurkat cells, 1,000 aM",the PCR product of exon 2 skipping disappeared
same,decrease of PD-1 mRNA level (nested qPCR),human PD-1 mRNA; 10 and 100 aM,> 80%
same,PD-1 mRNA level relative to the negative control level (nested qPCR),human PD-1 mRNA; [3],~55%
same,increase of IL-2 mRNA level (qPCR),"human IL-2 mRNA; activated Jurkat cells, 10 aM",~140%
same,increase of IL-2 mRNA level (qPCR),"human IL-2 mRNA; activated Jurkat cells, 100 aM",120%
same,increase of IL-2 mRNA level (qPCR),human IL-2 mRNA; [3],40%
OC[C@H]1O[C@@H](Oc2ccc(O)cc2)[C@H](O)[C@@H](O)[C@@H]1O [arbutin],decrease of melanin content,[2]; 10 μg/mL,~15%
same,decrease of melanin content,[2]; 100 μg/mL,25%
